Results published in patent US11999727B2 (Tango Therapeutics, Inc., priority 2020, dated 2024).

Experiments:
[1] = target: T1, PRMT5 (Homo sapiens, UniProt O14744); assay: PRMT5 biochemical IC50 assay with no cofactor; settings: PRMT5, no cofactor; read-out: No Cofactor/rel IC50
T1 construct: purchased Viva (custom protein)
Description: Table 1 indicates IC50 values (μM) against PRMT5 for exemplary compounds in the presence of SAM as cofactor, with no cofactor, and with MTA as cofactor, respectively (columns 4-6). […] Ki values can be calculated from the IC50 values as described in the Examples section. As detailed in the Examples section, for the assay performed in the presence of SAM, IC50=Ki×1.5 (Ki=IC50/1.5).

[2] = target: T1, PRMT5; assay: PRMT5 biochemical IC50 assay with SAM as cofactor; settings: PRMT5, SAM as cofactor; read-out: SAM IC50
[3] = tested on: HAP1 MTAP-deleted cell line; assay: SDMA in-cell western assay, HAP1 MTAP-deleted; format: cell-based; settings: for IC50: Homo sapiens, HAP1, SDMA in-cell western, HAP1 MTAP-deleted; for MTAP intact/deleted ratio: IC50 ratio HAP1 MTAP-intact / HAP1 MTAP-deleted, SDMA in-cell western
Method in brief: (§1)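 IC50 values come from SDMA signal quantified by in-cell western in two HAP1 lines, one with native MTAP levels and one lacking MTAP.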

[4] = tested on: HAP1 MTAP-intact cell line; assay: SDMA in-cell western assay, HAP1 MTAP-intact; format: cell-based; settings: Homo sapiens, HAP1, SDMA in-cell western, HAP1 MTAP-intact; read-out: MTAP HAP1 intact IC50
Method in brief: as §1

[5] = tested on: HAP1 MTAP-deleted cell line; assay: Viability assay, MTAP-deleted cell line; format: cell-based; settings: Homo sapiens, read-out: HAP1 MTAP deleted viability
Description: Table 1 additionally indicates IC50 values in a viability assay for the MTAP-deleted cell line (column 10), indicating the effect of treatment with compound on cell survival.

[6] = target: T1, PRMT5; assay: PRMT5 biochemical IC50 assay with MTA as cofactor; settings: PRMT5, MTA as cofactor; read-out: MTA IC50
[7] = read-out: HAP 1 MTAP deleted IC50
[8] = HAP1, viability IC50, MTAP-deleted cell line
[9] = read-out: HAP1 MTAP deleted IC50
[10] = HAP1, viability assay, HAP1 MTAP-deleted

T1 sequence (O14744 whole entry): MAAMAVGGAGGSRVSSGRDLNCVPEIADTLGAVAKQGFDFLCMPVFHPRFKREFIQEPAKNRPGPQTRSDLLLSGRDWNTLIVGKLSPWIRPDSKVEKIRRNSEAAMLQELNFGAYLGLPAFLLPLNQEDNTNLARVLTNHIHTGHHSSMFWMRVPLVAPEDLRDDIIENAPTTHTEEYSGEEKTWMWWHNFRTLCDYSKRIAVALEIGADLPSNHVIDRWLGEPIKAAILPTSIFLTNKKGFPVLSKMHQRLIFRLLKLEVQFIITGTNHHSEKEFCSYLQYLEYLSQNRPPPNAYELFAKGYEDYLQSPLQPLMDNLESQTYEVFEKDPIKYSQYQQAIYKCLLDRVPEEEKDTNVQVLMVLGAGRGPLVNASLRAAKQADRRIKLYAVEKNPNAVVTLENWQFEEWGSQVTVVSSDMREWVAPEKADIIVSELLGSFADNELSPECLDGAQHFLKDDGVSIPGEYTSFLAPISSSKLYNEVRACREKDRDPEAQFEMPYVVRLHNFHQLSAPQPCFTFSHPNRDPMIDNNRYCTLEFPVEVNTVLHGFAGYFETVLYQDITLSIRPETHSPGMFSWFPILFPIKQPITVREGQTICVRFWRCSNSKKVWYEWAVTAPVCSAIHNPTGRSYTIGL
T1 sequence (Q9BQA1 whole entry partner): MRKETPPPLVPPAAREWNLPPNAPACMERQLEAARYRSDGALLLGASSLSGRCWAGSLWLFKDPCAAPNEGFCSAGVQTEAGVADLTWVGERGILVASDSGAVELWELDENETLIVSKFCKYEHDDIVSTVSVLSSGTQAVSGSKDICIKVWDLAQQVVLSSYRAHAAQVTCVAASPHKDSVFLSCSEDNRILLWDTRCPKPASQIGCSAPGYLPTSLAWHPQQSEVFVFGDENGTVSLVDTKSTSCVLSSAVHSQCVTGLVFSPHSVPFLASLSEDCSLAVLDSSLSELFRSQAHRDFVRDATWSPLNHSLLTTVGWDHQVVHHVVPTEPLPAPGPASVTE

Structure (SMILES) | IC50 [1] [nM] | IC50 [2] [nM] | IC50 [3, 7] [nM] | MTAP intact/deleted ratio [3] | IC50 [4] [nM] | IC50 [5, 8] [nM] | IC50 [6] [nM] | IC50 [3, 9] [nM] | IC50 [5, 10] [nM]
Cc1cc(NC(=O)C(=O)N2C[C@H](C)C(F)(F)C[C@H]2c2ccc(F)c(F)c2)cnc1N (single isomer, unassigned) [Compound 684] | > 500 | > 500 | > 1000 | C (an IC50 ratio of less than 3 fold) | > 1000 | > 10000 | > 500 | – | –
CC(=O)Nc1ccc([C@H]2CC[C@H](C)CN2C(=O)C(=O)Nc2cncc(C(N)=O)c2)s1 (single isomer, unassigned) [Compound 686] | > 500 | > 500 | > 1000 | C (an IC50 ratio of less than 3 fold) | > 1000 | > 10000 | > 500 | – | –
Cc1ccc([C@@H]2CC[C@@H](C)CN2C(=O)C(=O)Nc2cnc(N)c(C)c2)cn1 (single isomer, unassigned) [Compound 687] | < 50 | 50 to 500 | < 100 | A (an IC50 ratio greater than or equal to 10 fold) | 100 to 1000 | < 1000 | < 50 | – | –
Cc1cc(NC(=O)C(=O)N2C[C@H](C)CC[C@H]2c2ccc(C(F)(F)F)c(Cl)c2)cnc1N (single isomer, unassigned) [Compound 689] | > 500 | > 500 | > 1000 | C (an IC50 ratio of less than 3 fold) | > 1000 | > 10000 | > 500 | – | –
Cc1nc2cc([C@@H]3CC[C@@H](C)CN3C(=O)C(=O)Nc3cncc(C(N)=O)c3)ccc2s1 (single isomer, unassigned) [Compound 693] | < 50 | 50 to 500 | < 100 | A (an IC50 ratio greater than or equal to 10 fold) | 100 to 1000 | < 1000 | < 50 | – | –
CCc1cc(NC(=O)C(=O)N2C[C@@H](C)CC[C@@H]2c2ccc3c(c2)CNC3=O)cnc1N (single isomer, unassigned) [Compound 696, N-(6-amino-5-ethylpyridin-3-yl)-2-(5-methyl-2-(1-oxoisoindolin-5-yl)piperidin-1-yl)-2-oxoacetamide] | < 50 | 50 to 500 | < 100 | A (an IC50 ratio greater than or equal to 10 fold) | > 1000 | 1000 to 10000 | < 50 | – | –
Cc1ncc(NC(=O)C(=O)N2C[C@H](C)CC[C@H]2c2ccc3c(c2)CCC(=O)N3)cc1C(F)(F)F (single isomer, unassigned) [Compound 697] | < 50 | 50 to 500 | < 100 | A (an IC50 ratio greater than or equal to 10 fold) | > 1000 | < 1000 | < 50 | – | –
CCc1cc(NC(=O)C(=O)N2C[C@@H](C)CC[C@@H]2c2ccc3c(c2)C(=O)NC3)cnc1N (single isomer, unassigned) [Compound 700] | < 50 | 50 to 500 | < 100 | A (an IC50 ratio greater than or equal to 10 fold) | > 1000 | < 1000 | < 50 | – | –
Cc1nc2cc([C@H]3CC[C@H](C)CN3C(=O)C(=O)Nc3cncc(C(N)=O)c3)ccc2s1 (single isomer, unassigned) [Compound 702] | > 500 | > 500 | > 1000 | B (an IC50 ratio greater than or equal to 3 fold but lower than 10 fold) | > 1000 | > 10000 | > 500 | – | –
Cc1cc(NC(=O)C(=O)N2C[C@@H](C)CC[C@@H]2c2ccc(C(F)(F)F)c(Cl)c2)cnc1N (single isomer, unassigned) [Compound 703] | 50 to 500 | 50 to 500 | 100 to 1000 | C (an IC50 ratio of less than 3 fold) | 100 to 1000 | 1000 to 10000 | < 50 | – | –
CC(=O)Nc1ccc([C@@H]2CC[C@@H](C)CN2C(=O)C(=O)Nc2cncc(C(N)=O)c2)s1 (single isomer, unassigned) [Compound 704] | 50 to 500 | > 500 | > 1000 | C (an IC50 ratio of less than 3 fold) | > 1000 | > 10000 | < 50 | – | –
Cc1cc(NC(=O)C(=O)N2C[C@@H](C)C(F)(F)C[C@@H]2c2ccc(F)c(F)c2)cnc1N (single isomer, unassigned) [Compound 705] | < 50 | 50 to 500 | – | B (an IC50 ratio greater than or equal to 3 fold but lower than 10 fold) | 100 to 1000 | – | < 50 | < 100 | < 1000
C[C@@H]1CN(C(=O)C(=O)Nc2cncc(C(N)=O)c2)[C@@H](c2ccc(F)c(F)c2)CC1(F)F (single isomer, unassigned) [Compound 706] | > 500 | > 500 | – | B (an IC50 ratio greater than or equal to 3 fold but lower than 10 fold) | > 1000 | – | > 500 | > 1000 | > 10000
Cc1ccc([C@H]2CC[C@H](C)CN2C(=O)C(=O)Nc2cnc(N)c(C)c2)cn1 (single isomer, unassigned) [Compound 707] | > 500 | > 500 | – | B (an IC50 ratio greater than or equal to 3 fold but lower than 10 fold) | > 1000 | – | > 500 | > 1000 | > 10000
CCc1cc(NC(=O)C(=O)N2C[C@@H](C)CC[C@@H]2c2ccccc2)cnc1N (single isomer, unassigned) [Compound 709] | > 500 | > 500 | – | C (an IC50 ratio of less than 3 fold) | > 1000 | – | 50 to 500 | > 1000 | > 10000
CC(=O)Nc1ccc([C@H]2CC[C@H](C)CN2C(=O)C(=O)Nc2cnc(N)c(C)c2)s1 (single isomer, unassigned) [Compound 717] | > 500 | > 500 | – | C (an IC50 ratio of less than 3 fold) | > 1000 | – | > 500 | > 1000 | > 10000
C[C@@H]1CN(C(=O)C(=O)Nc2cncc(C(N)=O)c2)[C@@H](c2ccc(F)cc2)CC1(F)F (single isomer, unassigned) [Compound 718] | > 500 | > 500 | – | C (an IC50 ratio of less than 3 fold) | > 1000 | – | > 500 | > 1000 | > 10000
Cc1nc2cc([C@H]3CC[C@H](C)CN3C(=O)C(=O)Nc3cnc(N)c(C)c3)ccc2s1 (single isomer, unassigned) [Compound 719] | < 50 | 50 to 500 | – | A (an IC50 ratio greater than or equal to 10 fold) | 100 to 1000 | – | < 50 | < 100 | < 1000
CCc1cc(NC(=O)C(=O)N2C[C@H](C)CC[C@H]2c2ccc3c(c2)CCC(=O)N3)cnc1N (single isomer, unassigned) [Compound 720] | < 50 | 50 to 500 | – | A (an IC50 ratio greater than or equal to 10 fold) | 100 to 1000 | – | < 50 | < 100 | < 1000
CCc1cc(NC(=O)C(=O)N2C[C@@H](C)C(F)(F)C[C@@H]2c2ccc(F)c(F)c2)cnc1N (single isomer, unassigned) [Compound 721] | < 50 | 50 to 500 | – | A (an IC50 ratio greater than or equal to 10 fold) | > 1000 | – | < 50 | < 100 | < 1000
CNS(=O)(=O)c1ccc([C@H]2CC[C@H](C)CN2C(=O)C(=O)Nc2cncc(C(N)=O)c2)cc1 (single isomer, unassigned) [Compound 722] | 50 to 500 | 50 to 500 | – | C (an IC50 ratio of less than 3 fold) | > 1000 | – | < 50 | > 1000 | > 10000
C[C@H]1CC[C@H](c2ccc(S(N)(=O)=O)cc2)N(C(=O)C(=O)Nc2cncc(C(N)=O)c2)C1 (single isomer, unassigned) [Compound 724] | > 500 | > 500 | – | C (an IC50 ratio of less than 3 fold) | > 1000 | – | > 500 | > 1000 | > 10000
